In patent US9096585B2 (Icahn School of Medicine at Mount Sinai, priority 2010, dated 2015):

System: influenza viruses
Type: cell-based, influenza virus

Cc1[nH]c2ccc(-c3nnc(SCC(=O)N4CCCC4)o3)cc2c1C [Compound A3]
generation of A3-resistant influenza viruses: unsuccessful
